Laboratory results published in patent US11612604B2, “Methods of treating cancer with PLK4 inhibitors” (LUDWIG INSTITUTE FOR CANCER RESEARCH LTD, priority 2017, dated 2023).

What follows are compounds tested against T1, PLK4 (Homo sapiens, UniProt O00444) (assay: Activity (IC50) of the Table 1 compounds as PLK4 inhibitors). Conditions: Table 1, IC50 class.
T1 sequence (O00444 1-970): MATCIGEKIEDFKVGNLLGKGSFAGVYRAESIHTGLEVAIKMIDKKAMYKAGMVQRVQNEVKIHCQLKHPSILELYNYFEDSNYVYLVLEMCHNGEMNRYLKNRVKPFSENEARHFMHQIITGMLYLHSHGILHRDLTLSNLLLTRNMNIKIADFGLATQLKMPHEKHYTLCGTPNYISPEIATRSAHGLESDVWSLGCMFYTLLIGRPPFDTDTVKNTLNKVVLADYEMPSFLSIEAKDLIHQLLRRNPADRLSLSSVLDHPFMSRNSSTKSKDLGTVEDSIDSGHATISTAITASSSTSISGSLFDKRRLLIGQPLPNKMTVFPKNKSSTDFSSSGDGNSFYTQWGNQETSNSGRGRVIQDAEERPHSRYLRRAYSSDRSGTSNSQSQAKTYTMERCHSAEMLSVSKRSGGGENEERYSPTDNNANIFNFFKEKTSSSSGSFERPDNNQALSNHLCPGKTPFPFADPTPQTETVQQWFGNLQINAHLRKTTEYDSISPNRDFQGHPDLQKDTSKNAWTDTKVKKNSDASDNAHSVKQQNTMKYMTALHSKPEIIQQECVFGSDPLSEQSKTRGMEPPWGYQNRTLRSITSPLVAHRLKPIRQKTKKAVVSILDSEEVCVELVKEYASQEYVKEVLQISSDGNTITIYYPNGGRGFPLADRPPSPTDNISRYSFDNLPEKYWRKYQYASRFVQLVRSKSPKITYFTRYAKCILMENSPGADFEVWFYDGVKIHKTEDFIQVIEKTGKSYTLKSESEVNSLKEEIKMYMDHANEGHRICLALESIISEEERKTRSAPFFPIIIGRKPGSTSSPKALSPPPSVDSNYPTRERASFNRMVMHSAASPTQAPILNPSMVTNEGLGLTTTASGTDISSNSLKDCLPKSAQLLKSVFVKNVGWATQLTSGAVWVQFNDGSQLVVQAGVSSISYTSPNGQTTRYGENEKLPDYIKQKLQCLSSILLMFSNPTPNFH
Assay type: biochemical

IC50, < 0.1 µM:
Cc1cc(Nc2nc(Sc3ccc(NC(=O)C4CC4)cc3)nc(N3CCN(CCN(C)C)CC3)c2C)n[nH]1
Cc1cc(Nc2nc(Sc3ccc(NC(=O)C4CC4)cc3)nc(N(C)C)c2C)n[nH]1
CCN(C)c1nc(Sc2ccc(NC(=O)C3CC3)cc2)nc(Nc2cc(C)[nH]n2)c1C
CCN(CC)c1nc(Sc2ccc(NC(=O)C3CC3)cc2)nc(Nc2cc(C)[nH]n2)c1C
Cc1cc(Nc2nc(Sc3ccc(NC(=O)C4CC4)cc3)nc(Cl)c2C)n[nH]1
Cc1cc(Nc2nc(Sc3ccc(NC(=O)C4CC4)cc3)nc(N(C)CCN(C)C)c2C)n[nH]1
CNC(=O)Nc1ccc(Sc2nc(Nc3cc(C)[nH]n3)c(C)c(N3CCCCC3)n2)cc1
COC(=O)Nc1ccc(Sc2nc(Nc3cc(C)[nH]n3)c(C)c(N3CCCCC3)n2)cc1
CC(=O)Nc1ccc(Sc2nc(Nc3cc(C)[nH]n3)c(C)c(N3CCC(F)(F)CC3)n2)cc1
CC(=O)Nc1ccc(Sc2nc(Nc3cc(C)[nH]n3)c(C)c(N3CCC(F)CC3)n2)cc1
COc1c(Nc2cc(C)[nH]n2)nc(Sc2ccc(S(=O)(=O)Cc3ccccc3)cc2)nc1N1CCC(CCN2CCN(C)CC2)CC1
COc1c(Nc2cc(C)[nH]n2)nc(Sc2ccc(S(=O)(=O)Cc3ccccc3)cc2)nc1N1CCN(CCN2CCCCCC2)CC1
COc1c(Nc2cc(C)[nH]n2)nc(Sc2ccc(NC(C)=O)cc2)nc1N1CCN(C2CCN(C)CC2)CC1
COc1c(Nc2cc(C)[nH]n2)nc(Sc2ccc(NC(C)=O)cc2)nc1N1CCN(C)CC1
CC(=O)Nc1ccc(Sc2nc(Nc3cc(C)[nH]n3)c(Cl)c(N3CCCCC3)n2)cc1
CNc1ccc(Sc2nc(Nc3cc(C)[nH]n3)c(C)c(N3CCCCC3)n2)cc1
Cc1cc(Nc2nc(Sc3ccc(N(C)C)cc3)nc(N3CCCCC3)c2C)n[nH]1
CC(=O)Nc1ccc(Sc2nc(Nc3cc(C)[nH]n3)cc(N3CCCCC3)n2)cc1
COc1c(Nc2cc(C)[nH]n2)nc(Sc2ccc(NC(C)=O)cc2)nc1N1CCNCC1
CCN(CC)c1nc(Sc2ccc(NC(C)=O)cc2)nc(Nc2cc(C)[nH]n2)c1OC
CCN(C)c1nc(Sc2ccc(NC(C)=O)cc2)nc(Nc2cc(C)[nH]n2)c1OC
COc1c(Nc2cc(C)[nH]n2)nc(Sc2ccc(NC(C)=O)cc2)nc1N(C)C
COc1c(Nc2cc(C)[nH]n2)nc(Sc2ccc(NC(C)=O)cc2)nc1N1CCOCC1
COc1c(Nc2cc(C)[nH]n2)nc(Sc2ccc(NC(C)=O)cc2)nc1N1CCN(C(C)=O)CC1
COCCN1CCN(c2nc(Sc3ccc(NC(C)=O)cc3)nc(Nc3cc(C)[nH]n3)c2OC)CC1
COc1c(Nc2cc(C)[nH]n2)nc(Sc2ccc(NC(C)=O)cc2)nc1N1CCCC1
COc1c(Nc2cc(C)[nH]n2)nc(Sc2ccc(NC(C)=O)cc2)nc1N(C)C(C)C
CC(=O)Nc1ccc(Sc2nc(Nc3cc(C)[nH]n3)c(C)c(N3CCCCC3C)n2)cc1 (stereo not shown)
CCN1CCN(c2nc(Sc3ccc(NC(C)=O)cc3)nc(Nc3cc(C)[nH]n3)c2C)CC1
COCC(=O)N1CCN(c2nc(Sc3ccc(NC(C)=O)cc3)nc(Nc3cc(C)[nH]n3)c2OC)CC1
COc1c(Nc2cc(C)[nH]n2)nc(Sc2ccc(NC(C)=O)cc2)nc1N1CCC(F)(F)CC1
COc1c(Nc2cc(C)[nH]n2)nc(Sc2ccc(NC(C)=O)cc2)nc1N1CCC(F)CC1
COc1c(Nc2cc(C)[nH]n2)nc(Sc2ccc(NC(C)=O)cc2)nc1N1CCC(O)CC1
COc1c(Nc2cc(C)[nH]n2)nc(Sc2ccc(NC(C)=O)cc2)nc1N1CC=CCC1
COc1c(Nc2cc(C)[nH]n2)nc(Sc2ccc(NC(C)=O)cc2)nc1N1CC=C(F)CC1
COc1c(Nc2cc(C)[nH]n2)nc(Sc2ccc(NC(C)=O)cc2)nc1N1CCC(C(C)=O)CC1
COc1c(Nc2cc(C)[nH]n2)nc(Sc2ccc(NC(C)=O)cc2)nc1N1CCC(N)CC1
COc1c(Nc2cc(C)[nH]n2)nc(Sc2ccc(NC(C)=O)cc2)nc1N1CCC(N(C)C)CC1
CC(=O)Nc1ccc(Sc2nc(Nc3cc(C)[nH]n3)c(C)c(N3CCC(CCN(C)C)CC3)n2)cc1
CCN1CCN(c2nc(Sc3ccc(NC(C)=O)cc3)nc(Nc3cc(C)[nH]n3)c2OC)CC1
COc1c(Nc2cc(C)[nH]n2)nc(Sc2ccc(NC(C)=O)cc2)nc1N1CCN(C(=O)C(C)C)CC1
CCC(=O)N1CCN(c2nc(Sc3ccc(NC(C)=O)cc3)nc(Nc3cc(C)[nH]n3)c2OC)CC1
COc1c(Nc2cc(C)[nH]n2)nc(Sc2ccc(S(=O)(=O)Cc3ccccc3)cc2)nc1N1CCN(C2CCN(C)CC2)CC1
COc1c(Nc2cc(C)[nH]n2)nc(Sc2ccc(S(=O)(=O)Cc3ccccc3)cc2)nc1N1CCC(N2CCN(C)CC2)CC1
CSc1nc(Nc2cc(C)[nH]n2)c(C)c(N2CCC(O)CC2)n1
CSc1nc(Nc2cc(C)[nH]n2)c(C)c(N2CCOCC2)n1
CC(=O)Nc1ccc(Sc2nc(Nc3cc(C)[nH]n3)c(C)c(N3CCN(C(C)C)CC3)n2)cc1
CC(=O)Nc1ccc(Sc2nc(Nc3cc(C)[nH]n3)c(C)c(N3CCN(C(=O)C(C)C)CC3)n2)cc1
CNCC(=O)N1CCN(c2nc(Sc3ccc(NC(C)=O)cc3)nc(Nc3cc(C)[nH]n3)c2OC)CC1
COc1c(Nc2cc(C)[nH]n2)nc(Sc2ccc(NC(C)=O)cc2)nc1N1CCN(C(=O)CN(C)C)CC1
CNC1CCN(c2nc(Sc3ccc(NC(C)=O)cc3)nc(Nc3cc(C)[nH]n3)c2C)CC1
CC(=O)Nc1ccc(Sc2nc(Nc3cc(C)[nH]n3)c(C)c(N3CCC(C(C)=O)CC3)n2)cc1
COc1c(Nc2cc(C)[nH]n2)nc(Sc2ccc(NC(C)=O)cc2)nc1N1CCN(C(C)C)CC1
CNCC(=O)C1CCN(c2nc(Sc3ccc(NC(C)=O)cc3)nc(Nc3cc(C)[nH]n3)c2OC)CC1
Cc1cc(Nc2nc(Sc3ccccc3)nc(N(C)C)c2C)n[nH]1
CNC(=O)Nc1ccc(Sc2nc(Nc3cc(C)[nH]n3)c(C)c(N3CCC(O)CC3)n2)cc1
CNC(=O)Nc1ccc(Sc2nc(Nc3cc(C)[nH]n3)c(C)c(N3CCOCC3)n2)cc1
Cc1cc(Nc2nc(Sc3ccccc3)nc(N3CCC(O)CC3)c2C)n[nH]1
